In patent US20230303572A1, “18-MC SALT FORMS” (Mind Medicine, Inc., priority 2022, published 2023):
Counter-ions that a name gives are not always drawn. Marks after values point to notes of the source that are not given here.

Key:
Format in all cases: physicochemical
[1] = Physical form stability on storage at RT, air drying or exposure to ambient conditions (XRPD); details: for Form after treatment: metastable forms; for form conversion, summary statement: after air drying or RT storage, duration not stated; for physical stability at ambient conditions: time not stated; for Speculated form (physical stability): the solid turn to gel-like after air drying at RT in a few minutes
Text: (§1) For XRPD analysis, a PANalytical Empyrean and X′ Pert3 X-ray powder diffract meter was used.

[2] = Heating experiments and VT-XRPD (N2 drying, heating, cooling back): form change; details: for Form change after treatment: Heat to 165~170° C. under N2, XRPD form; for Form after heating: solid form by XRPD after heating, cells marked *, # have footnotes that are not shown; for form change after N2 drying (VT-XRPD): N2-drying for 20 min at 30° C.
Text: as §1

[3] = Approximate solubility estimated by stepwise solvent addition (RT and 50° C.)
Procedure: Approximate solubility values of sulfate Type A (824511-04-A) were estimated in 10 solvents to guide the solvent selection in the polymorph screening, with results summarized in TABLE 16B.
Approximate solubility of oxalate Type B (824511-04-C) was estimated in 10 solvents to guide the solvent selection in polymorph screening of oxalate, and the results were summarized in TABLE 19C.
Procedure: weigh ~2 mg solids into each 3-mL glass vial, add in corresponding solvent stepwise and sonicate or oscillate to see if solids dissolved completely. Stop adding solvent till the solids dissolves or total volume reaches 1.0 mL. Calculate the approximate solubility based on solvent volume.
The approximate solubility of mesylate Type A (824511-23-B) was estimated in 10 solvents to guide the solvent selection in polymorph screening of the mesylate, with results summarized in TABLE 22C.
Approximate solubility of HBr salt Type A (824511-29-B) was estimated in 10 solvents to guide the solvent selection in polymorph screening of HBr salt, with data summarized in TABLE 25B.
Approximate solubility of tosylate Type B (824511-23-A-0628) was estimated in 40 solvents to guide the solvent selection in polymorph screening of tosylate, with data summarized in TABLE 27B.
Approximate solubility of besylate Type B (824511-44-C2) was estimated in 38 solvents to guide the solvent selection in polymorph screening of besylate, with results shown in TABLE 31.

[4] = approximate solubility in EtOAc at RT
[5] = approximate solubility in H2O at RT
[6] = approximate solubility in MeOH at RT
[7] = approximate solubility in n-Heptane at RT
[8] = heating to 80° C. and cooling back to RT
[9] = approximate solubility in CHCl3 at RT
[10] = approximate solubility in THF at RT

COCC[C@H]1CC2CN3CCc4c([nH]c5ccccc45)[C@](C(=O)OC)(C2)[C@H]13 [HCl salt Type O, 18-methoxycoronaridine]
Form after treatment ([1]; RT storage): HCl salt Type A^#
form conversion, summary statement [1]: converted to HCl salt Type A

COCC[C@H]1CC2CN3CCc4c([nH]c5ccccc45)[C@](C(=O)OC)(C2)[C@H]13 [HCl salt Type H, 18-methoxycoronaridine]
Form change after treatment [2]: Freebase Type A+extra peak*
Form after heating [2]: Freebase Type A+extra peak

COCC[C@H]1CC2CN3CCc4c([nH]c5ccccc45)[C@](C(=O)OC)(C2)[C@H]13 [oxalate Type B, 18-methoxycoronaridine]
Solubility (mg/mL) [3, 4]: S<1.8 mg/mL
Solubility (mg/mL) [3, 5]: S>38.0 mg/mL
Solubility (mg/mL) [3, 6]: S>44.0 mg/mL
Solubility (mg/mL) [3, 7]: S<2.1 mg/mL

COCC[C@H]1CC2CN3CCc4c([nH]c5ccccc45)[C@](C(=O)OC)(C2)[C@H]13 [tosylate Type G, 18-methoxycoronaridine]
form change after heating (XRPD) [2, 8]: no form change
form change after heating (XRPD) ([2]; heating to 90° C.): crystallinity of the sample decreased significantly
form change after heating (XRPD/VT-XRPD) ([2]; heating to 100° C.): amorphous was obtained

COCC[C@H]1CC2CN3CCc4c([nH]c5ccccc45)[C@](C(=O)OC)(C2)[C@H]13 [tosylate Type E, 18-methoxycoronaridine]
form change after heating (XRPD) [2, 8]: no form change
form change after heating (XRPD) ([2]; heating to 101° C. and cooling back to RT): a sample with weak crystallinity and similar to tosylate Type B was obtained

COCC[C@H]1CC2CN3CCc4c([nH]c5ccccc45)[C@](C(=O)OC)(C2)[C@H]13 [besylate Type A, 18-methoxycoronaridine]
form change after heating (XRPD/VT-XRPD) ([2]; heating to 100° C.): a new form was observed and assigned as besylate Type C

COCC[C@H]1CC2CN3CCc4c([nH]c5ccccc45)[C@](C(=O)OC)(C2)[C@H]13 [HCl salt Type V, 18-methoxycoronaridine]
Form after treatment ([1]; Air drying): HCl salt Type A**
form conversion, summary statement [1]: converted to HCl salt Type A
form change after air drying (XRPD) ([1]; air drying for ~3 hours): converted to HCl salt Type A completely

COCC[C@H]1CC2CN3CCc4c([nH]c5ccccc45)[C@](C(=O)OC)(C2)[C@H]13 [tosylate Type I, 18-methoxycoronaridine]
form change after open dish (XRPD) ([1]; open dish for ~3 hrs): converted back to tosylate Type A with an extra peak of tosylate Type B

COCC[C@H]1CC2CN3CCc4c([nH]c5ccccc45)[C@](C(=O)OC)(C2)[C@H]13 [sulfate Type D, 18-methoxycoronaridine]
form change after N2 drying (VT-XRPD) [2]: a new form was observed and assigned as sulfate Type F

COCC[C@H]1CC2CN3CCc4c([nH]c5ccccc45)[C@](C(=O)OC)(C2)[C@H]13 [besylate Type C, 18-methoxycoronaridine]
form change after exposure to ambient conditions (XRPD) ([1]; exposure to ambient conditions for ~30 min): converted back to besylate Type A

COCC[C@H]1CC2CN3CCc4c([nH]c5ccccc45)[C@](C(=O)OC)(C2)[C@H]13 [mesylate Type B, 18-methoxycoronaridine]
physical stability at ambient conditions [1]: not found to be physically stable at ambient conditions and easily converted to gels/oils
Speculated form (physical stability) [1]: Metastable*

COCC[C@H]1CC2CN3CCc4c([nH]c5ccccc45)[C@](C(=O)OC)(C2)[C@H]13 [mesylate Type C, 18-methoxycoronaridine]
physical stability at ambient conditions [1]: not found to be physically stable at ambient conditions and easily converted to gels/oils
Speculated form (physical stability) [1]: Metastable*

COCC[C@H]1CC2CN3CCc4c([nH]c5ccccc45)[C@](C(=O)OC)(C2)[C@H]13 [mesylate Type A, 18-methoxycoronaridine]
Solubility (mg/mL) ([3]; approximate solubility in Acetone at RT): S<2.3 mg/mL
Solubility (mg/mL) [3, 9]: S>42.0* mg/mL
Solubility (mg/mL) [3, 4]: S<2.2 mg/mL
Solubility (mg/mL) [3, 5]: S>42.0* mg/mL
Solubility (mg/mL) [3, 6]: S>40.0 mg/mL
Solubility (mg/mL) [3, 10]: S<2.0 mg/mL
Solubility (mg/mL) [3, 7]: S<2.0 mg/mL
form change after N2 drying (VT-XRPD) [2]: no form change
form change after heating (XRPD/VT-XRPD) ([2]; heating to 100° C.): no obvious form change

COCC[C@H]1CC2CN3CCc4c([nH]c5ccccc45)[C@](C(=O)OC)(C2)[C@H]13 [HBr salt Type A, 18-methoxycoronaridine]
Solubility (mg/mL) ([3]; approximate solubility in ACN at RT): S<2.1 * mg/mL
Solubility (mg/mL) [3, 9]: S<2.1 * mg/mL
Solubility (mg/mL) ([3]; approximate solubility in DCM at RT): S<2.1 * mg/mL
Solubility (mg/mL) [3, 4]: S<2.1 mg/mL
Solubility (mg/mL) [3, 5]: S<2.1 mg/mL
Solubility (mg/mL) [3, 6]: S>42.0 mg/mL
Solubility (mg/mL) [3, 10]: S<2.0 mg/mL
Solubility (mg/mL) [3, 7]: S<2.0 mg/mL
form change after drying or heating (VT-XRPD) ([2]; drying or heating under N2 to higher temperatures and cooling back to RT): no form change

COCC[C@H]1CC2CN3CCc4c([nH]c5ccccc45)[C@](C(=O)OC)(C2)[C@H]13 [sulfate Type E, 18-methoxycoronaridine]
form change after heating (XRPD/VT-XRPD) ([2]; heating to 100° C.): no form change

COCCC1CC2CN3CCc4c([nH]c5ccccc45)C(C(=O)OC)(C2)C13.O=S(=O)(O)c1ccccc1 (centres unmarked) [besylate Type B (824511-44-C2)]
Approximate solubility ([3]; 50° C., solvent 2-MeTHF, *: little solids in the vial): S<1.9* mg/mL
Approximate solubility ([3]; 50° C., solvent Toluene): S<1.9 mg/mL
Approximate solubility ([3]; 50° C., solvent n-Heptane): S<2.0 mg/mL
Approximate solubility ([3]; RT, solvent 2-MeTHF): S<1.9 mg/mL
Approximate solubility ([3]; RT, solvent ACN): S>40.0 mg/mL
Approximate solubility ([3]; RT, solvent ACN/H2O (1:2, aw 0.9), *: little solids in the vial): S<1.9* mg/mL
Approximate solubility ([3]; RT, solvent CHCl3): S>40.0 mg/mL
Approximate solubility ([3]; RT, solvent DCM): S>40.0 mg/mL
Approximate solubility ([3]; RT, solvent EtOAc): S<2.0 mg/mL
Approximate solubility ([3]; RT, solvent H2O): S<2.0 mg/mL
Approximate solubility ([3]; RT, solvent IPA/H2O (847:153, aw 0.8)): S>40.0 mg/mL
Approximate solubility ([3]; RT, solvent MeOH): S>44.0 mg/mL
Approximate solubility ([3]; RT, solvent THF/H2O (87:13, aW 0.8)): S>42.0 mg/mL
Approximate solubility ([3]; RT, solvent THF/H2O (981:19, aw 0.2)): S>40.0 mg/mL
Approximate solubility ([3]; RT, solvent n-Heptane): S<2.0 mg/mL

COCC[C@H]1CC2CN3CCc4c([nH]c5ccccc45)[C@](C(=O)OC)(C2)[C@H]13 [HCl salt Type F, 18-methoxycoronaridine]
Form change after treatment [2]: HCl salt Type K*
Form after heating [2]: HCl salt Type K^#

COCC[C@H]1CC2CN3CCc4c([nH]c5ccccc45)[C@](C(=O)OC)(C2)[C@H]13 [tosylate Type F, 18-methoxycoronaridine]
form change after heating (XRPD) ([2]; heating to 90° C.): form change to tosylate Type B

COCC[C@H]1CC2CN3CCc4c([nH]c5ccccc45)[C@](C(=O)OC)(C2)[C@H]13 [sulfate Type A, 18-methoxycoronaridine]
Solubility (mg/mL) ([3]; CHCl3, RT, approximate): S<1.9 mg/mL
Solubility (mg/mL) ([3]; DCM, RT, approximate): S<2.1 mg/mL
Solubility (mg/mL) ([3]; EtOAc, RT, approximate): S<2.0 mg/mL
Solubility (mg/mL) ([3]; MeOH, RT, approximate): S>44.0 mg/mL
Solubility (mg/mL) ([3]; THF, RT, approximate): S<1.9 mg/mL
Solubility (mg/mL) ([3]; Toluene, RT, approximate): S<2.2 mg/mL
Solubility (mg/mL) ([3]; n-Heptane, RT, approximate): S<1.8 mg/mL
form change after N2 drying (VT-XRPD) [2]: no obvious form change
form change after heating (XRPD/VT-XRPD) ([2]; heating to 120° C.): no obvious form change

COCC[C@H]1CC2CN3CCc4c([nH]c5ccccc45)[C@](C(=O)OC)(C2)[C@H]13 [tosylate Type B, 18-methoxycoronaridine]
Approximate solubility ([3]; 50° C., 1,4-Dioxane/n-heptane (1:2) v:v): S<1.9 mg/mL
Approximate solubility ([3]; 50° C., IPAc): S<2.2 mg/mL
Approximate solubility ([3]; 50° C., MTBE): S<2.1 mg/mL
Approximate solubility ([3]; 50° C., Toluene): S<1.9 mg/mL
Approximate solubility ([3]; 50° C., n-Heptane): S<2.0 mg/mL
Approximate solubility ([3]; RT, 2-MeTHF): S<2.1 mg/mL
Approximate solubility ([3]; RT, ACN/toluene (4:1) v:v): S>42.0 mg/mL
Approximate solubility ([3]; RT, Acetone/n-heptane (4:1) v:v): S<2.0 mg/mL
Approximate solubility ([3]; RT, CHCl3): S>40.0 mg/mL
Approximate solubility ([3]; RT, CHCl3/toluene (1:4) v:v): S<1.9 mg/mL
Approximate solubility ([3]; RT, EtOAc, little solid in the vial): S<2.1^& mg/mL
Approximate solubility ([3]; RT, EtOH): S>40.0 mg/mL
Approximate solubility ([3]; RT, EtOH/n-hexane (3:1) v:v): S>42.0 mg/mL
Approximate solubility ([3]; RT, H2O): S<2.0 mg/mL
Approximate solubility ([3]; RT, MeOH): S>44.0 mg/mL
Approximate solubility ([3]; RT, THF/H2O (87:13) v:v): S>42.0 mg/mL
Approximate solubility ([3]; RT, n-Heptane): S<2.0 mg/mL

COCC[C@H]1CC2CN3CCc4c([nH]c5ccccc45)[C@](C(=O)OC)(C2)[C@H]13 [besylate Type B, 18-methoxycoronaridine]
form change after N2 drying (VT-XRPD) [2]: no obvious form change
form change after heating (XRPD/VT-XRPD) ([2]; heating to 100° C.): no obvious form change
